Measurements published in US11849726B2, “Microbicidal composition” (Lanxess Corporation, priority 2016, dated 2023).

Assays:
Type in all cases: cell-based
[1] = test system: Candida albicans ATCC #10231; experiment: MIC / synergy index test in 96 well microtiter plates, yeast; settings: C. albicans ATCC #10231, contact time 24 hrs, potato dextrose broth
Method: Phenoxyethanol and Dipropylene glycol phenyl ether were evaluated for synergy by determining the synergy index (S.I.) of the combination. Synergy index was calculated based on minimum inhibitory concentrations (MIC) of two antimicrobial compounds (A and B) alone and in combinations. The MIC test were run in accordance with the method described in U.S. Pat. No. 9,034,905. The tests organisms were Gram negative bacteria (Pseudomonas aeruginosa ATCC #15442), Gram positive bacteria (Staphylococcus aureus ATCC #6538), and yeast (Candida albicans ATCC #10231) and mold (Aspergillus brasiliensis ATCC #16404). […] The test was carried out in 96 well microtiter plates.
(§1) SI is calculated as follows: Ca/CA+Cb/CB=Synergy Index (“SI”) Wherein: • CA=concentration of compound A in ppm, acting alone, which produced an end point (MIC of Compound A). • Ca=concentration of compound A in ppm, in the mixture, which produced an end point. • CB=concentration of compound B in ppm, acting alone, which produced an end point (MIC of Compound B). • Cb=concentration of compound B in ppm, in the mixture, which produced an end point.
(§2) When the sum of Ca/CA and Cb/CB is greater than one, antagonism is indicated.

[2] = test system: Staphylococcus aureus ATCC #6538; experiment: MIC / synergy index test in 96 well microtiter plates, Gram positive bacteria; settings: S. aureus ATCC #6538, contact time 24 hrs, 10% tryptic soy broth
Method: (§3) Phenoxyethanol and Dipropylene glycol phenyl ether were evaluated for synergy by determining the synergy index (S.I.) of the combination. Synergy index was calculated based on minimum inhibitory concentrations (MIC) of two antimicrobial compounds (A and B) alone and in combinations. The MIC test were run in accordance with the method described in U.S. Pat. No. 9,034,905. The tests organisms were Gram negative bacteria (Pseudomonas aeruginosa ATCC #15442), Gram positive bacteria (Staphylococcus aureus ATCC #6538), and yeast (Candida albicans ATCC #10231) and mold (Aspergillus brasiliensis ATCC #16404). Contact time for the bacteria was 24 and 48 hours, yeast was 48 and 72 hrs, and 3 and 7 days for mold. The test was carried out in 96 well microtiter plates.
as §1, §2

[3] = test system: Aspergillus brasiliensis ATCC #16404; experiment: MIC / synergy index test in 96 well microtiter plates, mold; settings: A. brasiliensis ATCC #16404, contact time 3 days, potato dextrose broth
Method: as §3, §1, §2

SMILES | MIC of compound acting alone (CA / CB) [1] [ppm AI] | MIC of compound acting alone (CA / CB) [2] [ppm AI] | MIC of compound acting alone (CA / CB) [3] [ppm AI]
OCCOc1ccccc1 [Phenoxyethanol, 2-phenoxy-1-ethanol] | 5000 | 5000 | 3000
CC(CO)OCC(C)Oc1ccccc1 (stereo not drawn) [Dipropylene glycol phenyl ether] | 19992 | 19992 | 10000
